We go through 22 molecules from PubChem BioAssay (NCI).

Test systems include BT-549 breast; RXF 393 renal; SK-MEL-5 melanoma; SNB-19 CNS; SNB-75 CNS; T-47D breast; COLO 205 colon; LOX IMVI melanoma.
Holding throughout (experiment): NCI anticancer screen, dose series, 48 h

Structures are written as SMILES.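 A five-concentration, 48-hour dose response in 96-well plates underlies each endpoint, interpolated linearly between surrounding concentrations. Here, GI50 denotes the concentration required for 50% inhibition of growth. Definition used: TGI = concentration required for complete inhibition of growth.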

`C[C@@H](NC(C#N)c1ccco1)c1ccccc1` (some centres undefined): the TGI with BT-549 breast, in the assay with RXF 393 renal, in the assay with SK-MEL-5 melanoma, with SNB-19 CNS, with SNB-75 CNS and in the assay with T-47D breast was more than 100 µM each time.

Take `N#CC(C#N)=C/C=C(\Cl)c1ccc(Cl)cc1`: the GI50 with BT-549 breast is 8.32 µM; in the assay with COLO 205 colon, 7.72 µM; in the assay on LOX IMVI melanoma it was 1.18 µM; in the assay on RXF 393 renal, 7.63 µM; with SK-MEL-5 melanoma it was 3.13 µM; with SNB-19 CNS, 18.5 µM. For the same molecule, the GI50 with T-47D breast is 13.8 µM. For the same molecule, the TGI in the assay with BT-549 breast is 22 µM; with COLO 205 colon it was more than 52.1 µM; in the assay with RXF 393 renal it was 34.9 µM; in the assay on SK-MEL-5 melanoma, 11.5 µM; in the assay with SNB-19 CNS, more than 55.2 µM; in the assay with T-47D breast, 49.1 µM.

For `COc1cc2c(c3c1c(=O)c1ccccc1n3C)C=CC1(CCCC1)O2`, the TGI with BT-549 breast stood at 25.5 µM; in the assay on COLO 205 colon, 27.6 µM; in the assay on LOX IMVI melanoma, 27.3 µM; with RXF 393 renal it was 22.8 µM; in the assay on SK-MEL-5 melanoma, 25.6 µM; in the assay on SNB-19 CNS, 35.2 µM. In the assay with SNB-75 CNS, the TGI turned out to be 24.8 µM.

`CN(C)CCNC(=O)Cn1ccc(=O)c2cc([N+](=O)[O-])ccc21`: the TGI in the assay on COLO 205 colon, in the assay with LOX IMVI melanoma, in the assay on RXF 393 renal, in the assay on SK-MEL-5 melanoma, with SNB-19 CNS and with T-47D breast was more than 100 µM throughout.

Consider `CC(=O)c1c(C(F)(F)F)n([O-])c2ccccc2[n+]1=O`, for which the GI50 was 2.48 µM in the assay on BT-549 breast; 2.16 µM with COLO 205 colon; 1.31 µM with LOX IMVI melanoma; 1.57 µM with RXF 393 renal; 0.494 µM in the assay on SK-MEL-5 melanoma; 4.77 µM with SNB-19 CNS. Besides, the GI50 in the assay with T-47D breast is 0.748 µM. For the same molecule, the TGI in the assay on BT-549 breast was 9.06 µM; in the assay with COLO 205 colon it was 7.27 µM; in the assay on LOX IMVI melanoma it was 4.58 µM; in the assay on RXF 393 renal, 6.03 µM; in the assay on SK-MEL-5 melanoma it was 1.87 µM; with SNB-19 CNS it was 18.5 µM. The same molecule yielded a TGI in the assay on T-47D breast of 4.02 µM.

Regarding `C[C@@]1(O)C2CC3CC1(c1ccccc1)CC(/C3=N/O)/C2=N\O` (some centres undefined), the TGI in the assay with COLO 205 colon, in the assay with LOX IMVI melanoma, with RXF 393 renal, in the assay with SK-MEL-5 melanoma, in the assay with SNB-19 CNS and in the assay on SNB-75 CNS was more than 100 µM throughout. Also, the TGI with T-47D breast was more than 100 µM.

On to `COC(=O)C1=C(O)C(C(=O)OC)C2CC(=O)CC1C2(C)C` (centres undefined), for which the TGI in the assay on BT-549 breast, in the assay with COLO 205 colon, with RXF 393 renal, with SK-MEL-5 melanoma, in the assay on SNB-19 CNS and in the assay on SNB-75 CNS was more than 100 µM in each case. For the same molecule, the TGI with T-47D breast is more than 100 µM.

Turning to `CCNCCNC(=O)c1ccc(I)cc1`, the TGI with BT-549 breast, with LOX IMVI melanoma, with RXF 393 renal, in the assay on SK-MEL-5 melanoma, in the assay with SNB-19 CNS and in the assay on SNB-75 CNS was more than 100 µM in each case.

As for `CCSCCCSCCSCC`, the TGI with BT-549 breast, with COLO 205 colon, in the assay with LOX IMVI melanoma, in the assay on SK-MEL-5 melanoma, with SNB-19 CNS and with SNB-75 CNS was more than 100 µM in each case. Moreover, the TGI in the assay on T-47D breast is more than 100 µM.

With `C/C(CC(O)(C(F)(F)F)C(F)(F)F)=N\NC(N)=O`, the TGI with COLO 205 colon, in the assay on LOX IMVI melanoma, with RXF 393 renal, with SK-MEL-5 melanoma, with SNB-19 CNS and in the assay on SNB-75 CNS was more than 10 µM throughout. For the same molecule, in the assay on T-47D breast, the TGI is more than 10 µM.

In the case of `CC(C)=CCN1c2ccccc2NC(=O)CC1C` (centres undefined), the TGI is 55 µM in the assay on BT-549 breast; more than 100 µM with COLO 205 colon; more than 100 µM with LOX IMVI melanoma; more than 100 µM in the assay on RXF 393 renal; 85 µM in the assay with SK-MEL-5 melanoma; more than 100 µM with SNB-19 CNS. The same molecule gave a TGI in the assay on T-47D breast of more than 100 µM.

In the case of `CC12CCC(CC(=O)/C1=C(/Br)I)C2(C)C` (centres undefined), the TGI in the assay with COLO 205 colon is 31.9 µM; in the assay on RXF 393 renal, 20.6 µM; in the assay on SK-MEL-5 melanoma, 23.6 µM; in the assay on SNB-19 CNS it was 30.7 µM; in the assay with SNB-75 CNS it was 31 µM; in the assay with T-47D breast, 46.4 µM.

As for `COc1ccc(C2=Nn3c(nnc3-c3cc(Cl)cc(Cl)c3Cl)SC2)cc1`, the GI50 in the assay with BT-549 breast was 0.661 µM; in the assay on COLO 205 colon, 0.792 µM; with LOX IMVI melanoma, 0.568 µM; in the assay on SK-MEL-5 melanoma, 0.273 µM; with SNB-19 CNS it was 0.402 µM; in the assay with SNB-75 CNS, 0.335 µM. Also, the TGI with BT-549 breast is more than 21.9 µM; with COLO 205 colon it was 7.15 µM; in the assay on LOX IMVI melanoma, more than 100 µM; in the assay on SNB-19 CNS, 55.1 µM.

For the molecule `CNC(=S)Nc1ccc(OC)c2ccccc12`, the TGI in the assay with BT-549 breast, in the assay on COLO 205 colon, with LOX IMVI melanoma, with SK-MEL-5 melanoma, in the assay on SNB-19 CNS and in the assay with SNB-75 CNS was more than 10 µM each time. The molecule also returned a TGI in the assay on T-47D breast of more than 10 µM.

As for `Clc1ccc(-c2cn3ccnc3c(-c3ccc(Cl)cc3)n2)cc1`, the GI50 in the assay with BT-549 breast is 46 µM; in the assay on COLO 205 colon it was 27.6 µM; with LOX IMVI melanoma it was 12.7 µM; with RXF 393 renal, 3.57 µM; in the assay on SK-MEL-5 melanoma, 16.6 µM; in the assay on SNB-19 CNS, 45.8 µM. In addition, the GI50 with SNB-75 CNS was more than 100 µM. Further, the TGI with BT-549 breast was more than 100 µM; in the assay with COLO 205 colon, more than 100 µM; in the assay with LOX IMVI melanoma, 31.5 µM; with RXF 393 renal, more than 100 µM; in the assay with SK-MEL-5 melanoma, 43.5 µM; with SNB-19 CNS, more than 100 µM. The molecule also gave a TGI in the assay on SNB-75 CNS of more than 100 µM.

As to `CN1CCN(C(=S)N(C)C(=O)c2ccco2)CC1`, the TGI in the assay with BT-549 breast, in the assay on COLO 205 colon, with LOX IMVI melanoma, with RXF 393 renal, in the assay with SK-MEL-5 melanoma and with SNB-19 CNS was more than 100 µM each time. In addition, the TGI with T-47D breast was more than 100 µM.

As to `CCSC1=NC2C(N(CC)C(=O)N2CC)N1/N=C/C=C/c1ccccc1[N+](=O)[O-]` (centres undefined), the GI50 in the assay on BT-549 breast is 0.284 µM; with LOX IMVI melanoma, 0.126 µM; with RXF 393 renal, 0.033 µM; with SK-MEL-5 melanoma it was 0.112 µM; in the assay with SNB-19 CNS, 0.372 µM; in the assay on SNB-75 CNS, 0.0528 µM. Besides, the GI50 in the assay with T-47D breast is 2.59 µM. The TGI is 4.23 µM in the assay on BT-549 breast; more than 100 µM in the assay with LOX IMVI melanoma; more than 100 µM in the assay with RXF 393 renal; 0.538 µM in the assay on SK-MEL-5 melanoma; more than 100 µM in the assay on SNB-19 CNS; more than 100 µM with SNB-75 CNS. Further, the TGI in the assay with T-47D breast was more than 82.1 µM.

Take `COc1cccc(-c2nc3cc(NC(=O)c4ccc(Cl)c(C#N)c4)ccc3o2)c1`: the GI50 in the assay with COLO 205 colon is 5.77 µM; with LOX IMVI melanoma it was 3.7 µM; with RXF 393 renal, 3.12 µM; in the assay with SK-MEL-5 melanoma it was 1.79 µM; in the assay on SNB-19 CNS, 3.18 µM; in the assay on SNB-75 CNS it was 2.48 µM. The GI50 with T-47D breast was 3.75 µM. For the same molecule, the TGI with COLO 205 colon was more than 100 µM; in the assay on LOX IMVI melanoma it was more than 100 µM; in the assay on RXF 393 renal it was 9.45 µM; with SK-MEL-5 melanoma it was 4.2 µM; with SNB-19 CNS, more than 100 µM; with SNB-75 CNS it was 7.15 µM. In addition, in the assay on T-47D breast, the TGI was more than 100 µM.

Regarding `O=c1oc2ccccc2c2c1Sc1ccccc1N2`, the TGI in the assay on BT-549 breast, in the assay on COLO 205 colon, in the assay with LOX IMVI melanoma, in the assay on RXF 393 renal, with SK-MEL-5 melanoma and with SNB-19 CNS was more than 100 µM each time. Besides, the TGI in the assay on T-47D breast was 45.1 µM.

`O=C(Oc1cccnc1)c1cccnc1Nc1ccnc(C(F)(F)F)c1`: the GI50 in the assay with BT-549 breast was 5.2 µM; with COLO 205 colon it was 27.4 µM; in the assay on LOX IMVI melanoma, 8.16 µM; in the assay with RXF 393 renal, 21.3 µM; in the assay with SK-MEL-5 melanoma, 6.99 µM; in the assay with SNB-19 CNS it was 48.9 µM. In addition, the GI50 with T-47D breast was 36.3 µM. In addition, the TGI with BT-549 breast was more than 100 µM; in the assay on COLO 205 colon, 72.4 µM; with LOX IMVI melanoma it was 26 µM; in the assay on RXF 393 renal, 80.4 µM; with SK-MEL-5 melanoma, 63.4 µM; in the assay on SNB-19 CNS, more than 100 µM. Besides, in the assay on T-47D breast, the TGI is more than 100 µM.

Turning to `O=C1C=CC(=O)c2c1ccc1c3ccccc3n(Cc3ccc([N+](=O)[O-])cc3)c21`, the TGI with BT-549 breast, in the assay with COLO 205 colon, in the assay on RXF 393 renal, in the assay on SK-MEL-5 melanoma, with SNB-19 CNS and with SNB-75 CNS was more than 100 µM throughout. The same molecule returned a TGI in the assay with T-47D breast of more than 100 µM.

For `COc1ccc(-c2noc(C(=O)O)c2-c2cc(OC)c(OC)c(OC)c2)cc1`, the GI50 in the assay with BT-549 breast was 17.9 µM; with COLO 205 colon, 1.95 µM; in the assay on LOX IMVI melanoma it was 5.12 µM; in the assay on RXF 393 renal, 1.94 µM; in the assay on SK-MEL-5 melanoma it was 1.3 µM; in the assay on SNB-19 CNS, 6.75 µM. Besides, the TGI in the assay with BT-549 breast was more than 100 µM; with COLO 205 colon, 9.49 µM; with LOX IMVI melanoma, more than 100 µM; with RXF 393 renal, 6.56 µM; with SK-MEL-5 melanoma, more than 100 µM; with SNB-19 CNS, more than 100 µM.
